From patent publication US20140005163A1 (NOVARTIS AG, priority 2010, published 2014)

Legend:
PI3K delta = molecular target: T1, PI3K delta (Homo sapiens, UniProt O00329); assay: PI3K delta kinase assay (Kinase-Glo luminescence); format: biochemical
T1 construct: for the full-length p110-d subunit are generated and fused by overlapping PCR; p85(iSH2) fusion partner (see partner chain) (N); His tag (C); made in house; host or cells: baculovirus; Tn5 (Trichoplusia ni) or TiniPro insect cells
Summary of the method: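 Inhibition is derived from luminescent detection of unconsumed ATP. The reaction runs for one hour at ambient temperature and contains the δ isoform fusion protein, phosphatidylinositol substrate and low (1 μM) ATP. Eight compound concentrations are tested in single, and a 4-parameter logistic model is used to calculate IC50.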

PI3K beta = molecular target: T2, PI3K beta (Homo sapiens, UniProt P42338); assay: PI3K beta kinase assay (Kinase-Glo luminescence); format: biochemical
T2 construct: for the full-length p110-b subunit are generated and fused by overlapping PCR; p85(iSH2) fusion partner (see partner chain) (N); His tag (C); made in house; host or cells: baculovirus; Tn5 (Trichoplusia ni) or TiniPro insect cells
Summary of the method: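 p110β full-length/p85 iSH2 construct (BV-949), 25 nM, with 1 μM ATP and 10 μg/mL phosphatidylinositol in 10 mM Tris pH 7.5, 3 mM MgCl2, 50 mM NaCl, 0.05% CHAPS, 1 mM DTT. 60 min at room temperature; ATP remaining read by Kinase-Glo luminescence. IC50 from 8-point four-parameter logistic fit.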

mTOR = molecular target: T3, mTOR (Homo sapiens, UniProt P42345); assay: Biochemical assay for m-TOR by TR-FRET; settings: 8 μM ATP, 400 nM GFP-4EBP1, 0.5 nM mTOR
T3 construct: purchased Invitrogen Corporation (Carlsbad/CA, USA) PV4753
Summary of the method: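 mTOR (0.5 nM) was incubated at rt with ATP (8 μM final) and GFP-4EBP1 (400 nM final) in 50 mM HEPES pH 7.5, 10 mM MnCl2, 50 mM NaCl, 1 mM EGTA, 1 mM DTT. EDTA stop with Tb3+-anti-p4EBP1 [pThr46] antibody (0.5 nM); TR-FRET read 15 min later.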

T2 sequence (P42338 with tags, fused parts or gaps limits assumed): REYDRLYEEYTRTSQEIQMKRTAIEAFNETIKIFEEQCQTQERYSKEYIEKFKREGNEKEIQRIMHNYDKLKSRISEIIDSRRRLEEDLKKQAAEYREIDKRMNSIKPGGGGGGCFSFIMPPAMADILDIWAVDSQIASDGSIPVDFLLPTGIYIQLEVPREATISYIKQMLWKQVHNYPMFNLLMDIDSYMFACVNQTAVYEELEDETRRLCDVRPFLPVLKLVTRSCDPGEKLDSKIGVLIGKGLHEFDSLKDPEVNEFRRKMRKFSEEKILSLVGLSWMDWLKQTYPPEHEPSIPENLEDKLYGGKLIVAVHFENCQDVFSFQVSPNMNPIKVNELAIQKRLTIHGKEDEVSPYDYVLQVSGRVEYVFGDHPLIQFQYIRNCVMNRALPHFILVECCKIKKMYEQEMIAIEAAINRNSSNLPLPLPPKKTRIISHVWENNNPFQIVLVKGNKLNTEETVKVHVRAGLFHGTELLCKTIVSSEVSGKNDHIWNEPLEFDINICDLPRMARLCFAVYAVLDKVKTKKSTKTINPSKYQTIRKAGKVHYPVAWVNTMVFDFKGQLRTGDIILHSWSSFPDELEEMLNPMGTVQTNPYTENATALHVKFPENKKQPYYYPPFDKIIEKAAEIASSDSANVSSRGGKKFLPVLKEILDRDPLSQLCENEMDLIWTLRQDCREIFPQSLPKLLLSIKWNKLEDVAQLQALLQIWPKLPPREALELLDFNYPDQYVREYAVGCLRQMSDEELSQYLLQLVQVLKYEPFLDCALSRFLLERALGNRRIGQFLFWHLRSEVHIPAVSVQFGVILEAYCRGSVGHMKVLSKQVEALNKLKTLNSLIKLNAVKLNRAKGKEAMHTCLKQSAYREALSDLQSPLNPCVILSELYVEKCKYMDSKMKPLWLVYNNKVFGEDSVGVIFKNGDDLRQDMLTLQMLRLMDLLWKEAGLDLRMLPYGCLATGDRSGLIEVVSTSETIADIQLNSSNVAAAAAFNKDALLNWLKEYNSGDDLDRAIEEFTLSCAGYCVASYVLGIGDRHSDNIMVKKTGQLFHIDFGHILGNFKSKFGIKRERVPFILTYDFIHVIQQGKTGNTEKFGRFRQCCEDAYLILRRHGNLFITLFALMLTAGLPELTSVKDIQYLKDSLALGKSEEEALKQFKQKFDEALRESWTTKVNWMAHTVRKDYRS
T3 sequence (P42345 1360-2549 limits assumed): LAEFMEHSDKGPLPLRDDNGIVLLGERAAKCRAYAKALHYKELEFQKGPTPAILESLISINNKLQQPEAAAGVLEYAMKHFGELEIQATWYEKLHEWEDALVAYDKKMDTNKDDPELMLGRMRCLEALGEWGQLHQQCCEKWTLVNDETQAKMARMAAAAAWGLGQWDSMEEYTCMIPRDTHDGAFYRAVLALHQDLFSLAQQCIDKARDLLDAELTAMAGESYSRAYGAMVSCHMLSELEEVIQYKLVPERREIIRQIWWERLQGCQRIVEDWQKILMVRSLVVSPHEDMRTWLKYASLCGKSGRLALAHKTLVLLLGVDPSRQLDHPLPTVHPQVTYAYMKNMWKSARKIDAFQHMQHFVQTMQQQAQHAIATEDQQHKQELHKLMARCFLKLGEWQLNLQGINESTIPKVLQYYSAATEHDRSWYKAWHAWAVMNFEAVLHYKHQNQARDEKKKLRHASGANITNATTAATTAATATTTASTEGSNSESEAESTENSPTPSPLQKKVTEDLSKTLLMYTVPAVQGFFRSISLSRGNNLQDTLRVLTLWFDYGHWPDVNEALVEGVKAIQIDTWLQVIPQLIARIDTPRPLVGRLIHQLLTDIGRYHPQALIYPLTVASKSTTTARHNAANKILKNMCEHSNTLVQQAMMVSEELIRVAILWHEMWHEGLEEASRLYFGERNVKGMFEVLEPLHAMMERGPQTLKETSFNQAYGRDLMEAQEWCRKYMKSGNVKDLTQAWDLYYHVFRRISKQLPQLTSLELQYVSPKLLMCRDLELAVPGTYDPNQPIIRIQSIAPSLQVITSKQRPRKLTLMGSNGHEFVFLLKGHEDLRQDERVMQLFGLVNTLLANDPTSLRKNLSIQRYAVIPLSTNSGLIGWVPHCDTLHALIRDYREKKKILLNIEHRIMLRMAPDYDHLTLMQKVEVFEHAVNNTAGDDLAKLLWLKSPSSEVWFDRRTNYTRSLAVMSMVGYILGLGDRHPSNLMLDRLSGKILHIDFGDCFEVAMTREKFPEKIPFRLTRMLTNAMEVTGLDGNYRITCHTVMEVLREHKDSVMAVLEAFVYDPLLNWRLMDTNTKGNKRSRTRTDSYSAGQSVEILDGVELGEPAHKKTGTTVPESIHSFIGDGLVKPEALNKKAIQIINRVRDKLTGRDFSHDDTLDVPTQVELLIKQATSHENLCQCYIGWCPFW
T1 sequence (O00329 with tags, fused parts or gaps limits assumed): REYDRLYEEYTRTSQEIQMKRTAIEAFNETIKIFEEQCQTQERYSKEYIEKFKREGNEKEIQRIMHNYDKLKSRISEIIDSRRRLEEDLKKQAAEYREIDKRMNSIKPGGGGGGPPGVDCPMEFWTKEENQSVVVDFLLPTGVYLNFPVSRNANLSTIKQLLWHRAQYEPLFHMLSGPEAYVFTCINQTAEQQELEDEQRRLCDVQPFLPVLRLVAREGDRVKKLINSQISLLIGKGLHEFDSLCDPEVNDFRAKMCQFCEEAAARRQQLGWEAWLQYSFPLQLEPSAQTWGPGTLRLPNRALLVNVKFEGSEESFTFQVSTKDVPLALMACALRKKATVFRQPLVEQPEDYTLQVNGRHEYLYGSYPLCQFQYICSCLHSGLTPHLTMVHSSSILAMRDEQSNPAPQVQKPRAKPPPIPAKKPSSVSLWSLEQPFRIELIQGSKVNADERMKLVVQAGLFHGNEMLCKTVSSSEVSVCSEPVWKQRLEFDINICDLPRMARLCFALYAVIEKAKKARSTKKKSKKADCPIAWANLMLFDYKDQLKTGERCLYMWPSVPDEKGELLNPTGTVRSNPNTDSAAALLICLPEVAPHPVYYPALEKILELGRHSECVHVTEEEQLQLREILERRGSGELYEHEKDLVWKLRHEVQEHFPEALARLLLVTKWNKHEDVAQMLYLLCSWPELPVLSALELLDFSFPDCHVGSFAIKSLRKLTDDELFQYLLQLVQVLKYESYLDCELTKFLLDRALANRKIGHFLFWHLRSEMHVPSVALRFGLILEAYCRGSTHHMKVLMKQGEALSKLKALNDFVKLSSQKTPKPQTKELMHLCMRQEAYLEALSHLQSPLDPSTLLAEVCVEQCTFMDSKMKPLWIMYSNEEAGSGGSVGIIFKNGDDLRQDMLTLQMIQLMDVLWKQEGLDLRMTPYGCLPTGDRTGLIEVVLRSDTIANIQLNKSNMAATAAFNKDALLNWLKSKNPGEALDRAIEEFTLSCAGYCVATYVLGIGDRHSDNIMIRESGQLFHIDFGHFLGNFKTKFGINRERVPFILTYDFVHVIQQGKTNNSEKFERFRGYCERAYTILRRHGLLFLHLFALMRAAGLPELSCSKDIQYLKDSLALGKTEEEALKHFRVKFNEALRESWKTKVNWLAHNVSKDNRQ

Compound	IC50 (PI3K delta) [nM]	IC50 (PI3K beta) [nM]	IC50 (mTOR) [nM]
Cc1nn(C)cc1-n1c(=O)n(C)c2cnc3ccc(-c4cncc(C(C)O)c4)cc3c21 (racemic) [Example 217, (rac)-1-(1,3-Dimethyl-1H-pyrazol-4-yl)-8-[5-(1-hydroxy-ethyl)-pyridin-3-yl]-3-methyl-1,3-dihydro-imidazo[4,5-c]quinolin-2-one]	19	13	12
COc1ccc(-c2ccc3ncc4c(c3c2)n(-c2c(C)nn(C)c2C)c(=O)n4C)cc1OC [Example 1.9, 8-(3,4-Dimethoxy-phenyl)-3-methyl-1-(1,3,5-trimethyl-1H-pyrazol-4-yl)-1,3-dihydro-imidazo[4,5-c]quinolin-2-one]	18	39	308
COc1ccc(-c2ccc3ncc4c(c3c2)n(-c2ccnn2C)c(=O)n4C)cn1 [Example 2.2, 8-(6-Methoxy-pyridin-3-yl)-3-methyl-1-(2-methyl-2H-pyrazol-3-yl)-1,3-dihydro-imidazo[4,5-c]quinolin-2-one]	56	278	347
COc1ccc(-c2ccc3ncc4c(c3c2)n(-c2cnn(C)c2C)c(=O)n4C)cn1 [Example 2.9, 1-(1,5-Dimethyl-1H-pyrazol-4-yl)-8-(6-methoxy-pyridin-3-yl)-3-methyl-1,3-dihydro-imidazo[4,5-c]quinolin-2-one]	54	166	151
CCOc1ccc(-c2ccc3ncc4c(c3c2)n(-c2cn(C)nc2Cl)c(=O)n4C)cn1 [Example 3.8, 1-(3-Chloro-1-methyl-1H-pyrazol-4-yl)-8-(6-ethoxy-pyridin-3-yl)-3-methyl-1,3-dihydro-imidazo[4,5-c]quinolin-2-one]	34	123	9
Cc1c(-n2c(=O)n(C)c3cnc4ccc(-c5ccc(N(C)C)nc5)cc4c32)cnn1C [Example 4.4, 8-(6-Dimethylamino-pyridin-3-yl)-1-(1,5-dimethyl-1H-pyrazol-4-yl)-3-methyl-1,3-dihydro-imidazo[4,5-c]quinolin-2-one]	89	733	100
Cc1nn(C(C)C)cc1-n1c(=O)n(C)c2cnc3ccc(-c4cnc(N(C)C)nc4)cc3c21 [Example 6.1, 8-(2-Dimethylamino-pyrimidin-5-yl)-1-(1-isopropyl-3-methyl-1H-pyrazol-4-yl)-3-methyl-1,3-dihydro-imidazo[4,5-c]quinolin-2-one]	28	227	30
Cc1nn(C)cc1-n1c(=O)n(C)c2cnc3ccc(-c4cccnc4)cc3c21 [Example 10.2, 1-(1,3-Dimethyl-1H-pyrazol-4-yl)-3-methyl-8-pyridin-3-yl-1,3-dihydro-imidazo[4,5-c]quinolin-2-one]	112	86	48
CCn1cc(-n2c(=O)n(C)c3cnc4ccc(-c5ccc(CO)nc5)cc4c32)c(C)n1 [Example 16.1, 1-(1-ethyl-3-methyl-1H-pyrazol-4-yl)-8-(6-hydroxymethyl-pyridin-3-yl)-3-methyl-1,3-dihydro-imidazo[4,5-c]quinolin-2-one]	25	228	34
Cc1nn(C)cc1-n1c(=O)n(C)c2cnc3ccc(-c4cncc(S(C)(=O)=O)c4)cc3c21 [Example 22, 1-(1,3-Dimethyl-1H-pyrazol-4-yl)-8-(5-methanesulfonyl-pyridin-3-yl)-3-methyl-1,3-dihydro-imidazo[4,5-c]quinolin-2-one]	9	11	121
Cc1nn(CC(=O)N(C)C)c(C)c1-n1c(=O)n(C)c2cnc3ccc(-c4cnc(N)c(C(F)(F)F)c4)cc3c21 [Example 25.2, 2-{4-[8-(6-Amino-5-trifluoromethyl-pyridin-3-yl)-3-methyl-2-oxo-2,3-dihydro-imidazo[4,5-c]quinolin-1-yl]-3,5-dimethyl-pyrazol-1-yl}-N,N-dimethyl-acetamide]	32	578	152
Cc1nn(C)c(C)c1-n1c(=O)n(C)c2cnc3ccc(-c4cnc(N)c(C(F)(F)F)c4)cc3c21 [Example 25.3, 8-(6-Amino-5-trifluoromethyl-pyridin-3-yl)-3-methyl-1-(1,3,5-trimethyl-1H-pyrazol-4-yl)-1,3-dihydro-imidazo[4,5-c]quinolin-2-one]	46	48	116
Cc1nn(C(C)C)cc1-n1c(=O)n(C)c2cnc3ccc(-c4cnc(N)c(C(F)(F)F)c4)cc3c21 [Example 25.4, 8-(6-Amino-5-trifluoromethyl-pyridin-3-yl)-1-(1-isopropyl-3-methyl-1H-pyrazol-4-yl)-3-methyl-1,3-dihydro-imidazo[4,5-c]quinolin-2-one]	4	16	6
Cc1noc(C)c1-n1c(=O)n(C)c2cnc3ccc(-c4cnc(N)c(C(F)(F)F)c4)cc3c21 [Example 25.5, 8-(6-Amino-5-trifluoromethyl-pyridin-3-yl)-1-(3,5-dimethyl-isoxazol-4-yl)-3-methyl-1,3-dihydro-imidazo[4,5-c]quinolin-2-one]	10	30	432
Cc1nn(C)cc1-n1c(=O)n(C)c2cnc3ccc(-c4cncnc4)cc3c21 [Example 26, 1-(1,3-Dimethyl-1H-pyrazol-4-yl)-3-methyl-8-pyrimidin-5-yl-1,3-dihydro-imidazo[4,5-c]quinolin-2-one]	336	517	112
Cc1nn(C)cc1-n1c(=O)n(C)c2cnc3ccc(-c4cc(O)cc(C(F)(F)F)c4)cc3c21 [Example 34, 1-(1,3-Dimethyl-1H-pyrazol-4-yl)-8-(3-hydroxy-5-trifluoromethyl-phenyl)-3-methyl-1,3-dihydro-imidazo[4,5-c]quinolin-2-one]	7	15	133
Cc1nn(C)cc1-n1c(=O)n(C)c2cnc3ccc(-c4ccc(OCC5CC5)nc4)cc3c21 [Example 42, 8-(6-Cyclopropylmethoxy-pyridin-3-yl)-1-(1,3-dimethyl-1H-pyrazol-4-yl)-3-methyl-1,3-dihydro-imidazo[4,5-c]quinolin-2-one]	441		65
Cc1nn(C)cc1-n1c(=O)n(C)c2cnc3ccc(-c4ccc5c(c4)CCN5C)cc3c21 [Example 50, 1-(1,3-Dimethyl-1H-pyrazol-4-yl)-3-methyl-8-(1-methyl-2,3-dihydro-1H-indol-5-yl)-1,3-dihydro-imidazo[4,5-c]quinolin-2-one]	371		157
Cc1nn(CC(=O)N(C)C)c(C)c1-n1c(=O)n(C)c2cnc3ccc(-c4ccc(-n5cccn5)cc4)cc3c21 [Example 51.4, 2-{3,5-Dimethyl-4-[3-methyl-2-oxo-8-(4-pyrazol-1-yl-phenyl)-2,3-dihydro-imidazo[4,5-c]quinolin-1-yl]pyrazol-1-yl}-N,N-dimethyl-acetamide]	598		99
Cc1nn(C)cc1-n1c(=O)n(C)c2cnc3ccc(-c4cccc(OC(C)C)c4F)cc3c21 [Example 83, 1-(1,3-Dimethyl-1H-pyrazol-4-yl)-8-(2-fluoro-3-isopropoxy-phenyl)-3-methyl-1,3-dihydro-imidazo[4,5-c]quinolin-2-one]	234		61
CCn1cc(-n2c(=O)n(C)c3cnc4ccc(-c5ccc(COC)nc5)cc4c32)c(C)n1 [Example 104, 1-(1-Ethyl-3-methyl-1H-pyrazol-4-yl)-8-(6-methoxymethyl-pyridin-3-yl)-3-methyl-1,3-dihydro-imidazo[4,5-c]quinolin-2-one]	141		53
CCOc1ccc(-c2ccc3ncc4c(c3c2)n(-c2cn(CCOC)nc2C)c(=O)n4C)cn1 [Example 131, 8-(6-Ethoxy-pyridin-3-yl)-1-[1-(2-methoxy-ethyl)-3-methyl-1H-pyrazol-4-yl]-3-methyl-1,3-dihydro-imidazo[4,5-c]quinolin-2-one]	271		143
Cc1cc(-n2c(=O)n(C)c3cnc4ccc(-c5cncc(N6CCOCC6)c5)cc4c32)n(C)n1 [Example 175.2, 1-(2,5-Dimethyl-2H-pyrazol-3-yl)-3-methyl-8-(5-morpholin-4-yl-pyridin-3-yl)-1,3-dihydro-imidazo[4,5-c]quinolin-2-one]	235		155
CCN(CC)C(=O)Cn1cc(-n2c(=O)n(C)c3cnc4ccc(-c5cnc(N6CCCC6)nc5)cc4c32)c(C)n1 [Example 247.1, N,N-Diethyl-2-{3-methyl-4-[3-methyl-2-oxo-8-(2-pyrrolidin-1-yl-pyrimidin-5-yl)-2,3-dihydro-imidazo[4,5-c]quinolin-1-yl]-pyrazol-1-yl}-acetamide]	777		13
